Data from the NIST ThermoML archive (doi:10.1021/je034002l).

What was measured:
[1] = 101.3 kPa, Liquid
[2] = xn = mol fraction of the nth substance listed; conditions: 101.3 kPa, Liquid, x2 = 0

CCCCCC [hexane]
[1]
Conditions	mass density [kg/m3]	viscosity [mPa·s]
293.15 K	659.44	0.3163
298.15 K	654.93	0.3036
303.15 K	650.36	0.2914
308.15 K	645.74	0.2797
313.15 K	641.08	0.2685
318.15 K	636.37	0.258
323.15 K	631.61	0.2482
328.15 K	626.81	0.2391
333.15 K	621.95	0.2308

CCCCCC [hexane] + CCCCCCCl
[2]
Conditions	mass density [kg/m3]	viscosity [mPa·s]
293.15 K	659.44	0.3163
298.15 K	654.93	0.3036
303.15 K	650.36	0.2914
308.15 K	645.74	0.2797
313.15 K	641.08	0.2685
318.15 K	636.37	0.258
323.15 K	631.61	0.2482
328.15 K	626.81	0.2391
333.15 K	621.95	0.2308

CCCCCCCl [1-chlorohexane]
[1]
Conditions	mass density [kg/m3]	viscosity [mPa·s]
293.15 K	878.52	0.7704
298.15 K	873.75	0.7173
303.15 K	868.98	0.6702
308.15 K	864.21	0.6283
313.15 K	859.44	0.591
318.15 K	854.67	0.558
323.15 K	849.9	0.5285
328.15 K	845.12	0.5019
333.15 K	840.35	0.4778
